Structures are written as SMILES. pIC50: −log10 of the molar value. Like-named read-outs stand apart in the source and are kept apart here.

The term pIC50 denotes the negative decadic logarithm of the IC50, by convention in mol/L.

One data set can be described thus: Fluorescence in buffer. In kind it is physicochemical.
A further data set concerns the target T1, ovine COX-1 (Ovis aries, UniProt P05979).
T1 construct: can be purified from ovine seminal vesicles by standard procedures; from tissue; host or cells: ovine seminal vesicles
T1 sequence (P05979 25-600): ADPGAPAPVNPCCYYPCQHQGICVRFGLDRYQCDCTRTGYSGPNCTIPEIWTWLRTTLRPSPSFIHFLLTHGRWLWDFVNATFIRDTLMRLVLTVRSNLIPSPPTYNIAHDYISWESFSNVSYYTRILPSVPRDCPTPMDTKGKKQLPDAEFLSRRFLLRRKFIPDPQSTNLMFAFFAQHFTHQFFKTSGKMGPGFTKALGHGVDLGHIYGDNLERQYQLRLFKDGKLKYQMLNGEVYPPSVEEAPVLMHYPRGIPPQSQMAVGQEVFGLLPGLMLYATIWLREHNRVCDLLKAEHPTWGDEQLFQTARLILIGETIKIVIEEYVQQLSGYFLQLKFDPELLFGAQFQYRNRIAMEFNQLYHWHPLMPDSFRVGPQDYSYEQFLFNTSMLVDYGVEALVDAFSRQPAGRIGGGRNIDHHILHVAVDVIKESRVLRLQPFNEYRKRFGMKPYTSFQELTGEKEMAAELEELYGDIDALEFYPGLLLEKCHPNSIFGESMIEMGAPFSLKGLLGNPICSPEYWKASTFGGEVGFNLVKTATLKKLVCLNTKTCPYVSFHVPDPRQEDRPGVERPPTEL
Briefly: IC50 determinations using purified enzymes (TLC assay), COX-1. Format: biochemical. The note with it: assayed against purified enzymes. From the text:
(§1) Those skilled in the art will appreciate that an evaluation of the selectivity and efficacy of binding of the NSAID derivative to the COX-2 enzyme, e.g., after the derivative is synthesized, can be desirable. […] One example of an in vitro screening method takes advantage of the fact that both human and murine recombinant COX-2 can be expressed and isolated in pure form from an Sf9 cell expression system. […] Alternatively, membrane preparations from outdated human platelets can provide a source of human COX-1. […] The reaction is stopped by the addition of ethanol/methanol/1 M citrate, pH 4.0 (30:4:1). The extracted products are separated by thin layer chromatography (TLC), which allows quantitation of total product formation as well as assessment of product distribution. This assay is useful to define IC50 values for inhibition of either enzyme, and to determine time-dependency of inhibition. It also provides information concerning changes in products formed as a result of inhibition.
(§2) Reactions were terminated by solvent extraction in Et2O/CH3OH/1 M citrate, pH 4.0 (30:4:1). The phases were separated by centrifugation at 2000 g for 5 minutes and the organic phase was spotted on a 20×20 cm TLC plate (Lieselgel 60, EMD Chemicals, Inc., Gibbstown, N.J., United States of America). The plate was developed in EtOAc/CH2Cl2/glacial AcOH (75:25:1) at 4° C. Radiolabeled prostanoid products were quantitatively determined with a radioactivity scanner available from Bioscan, Inc. (Washington, D.C., United States of America). The percentage of total products observed at different concentrations of the presently disclosed compositions was divided by the percentage of products observed for protein samples preincubated for the same amount of time with DMSO.

A further data set deals with T2, COX-2 (Homo sapiens, UniProt P35354).
T2 sequence (P35354 18-604): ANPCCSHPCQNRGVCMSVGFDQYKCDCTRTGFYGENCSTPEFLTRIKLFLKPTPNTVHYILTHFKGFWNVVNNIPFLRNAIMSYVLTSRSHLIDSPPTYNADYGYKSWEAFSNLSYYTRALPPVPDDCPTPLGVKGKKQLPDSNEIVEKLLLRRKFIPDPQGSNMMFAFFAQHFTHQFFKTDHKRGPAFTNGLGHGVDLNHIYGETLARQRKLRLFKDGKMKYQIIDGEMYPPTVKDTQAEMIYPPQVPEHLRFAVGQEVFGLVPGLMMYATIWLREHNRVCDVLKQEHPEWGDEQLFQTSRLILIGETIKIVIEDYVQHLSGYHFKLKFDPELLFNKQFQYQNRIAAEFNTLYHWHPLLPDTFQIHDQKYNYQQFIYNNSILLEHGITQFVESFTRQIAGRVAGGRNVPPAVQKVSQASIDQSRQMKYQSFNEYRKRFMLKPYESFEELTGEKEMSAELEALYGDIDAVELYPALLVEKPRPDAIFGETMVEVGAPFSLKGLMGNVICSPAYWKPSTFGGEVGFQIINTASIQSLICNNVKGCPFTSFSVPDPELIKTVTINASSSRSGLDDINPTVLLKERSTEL
Briefly: IC50 determinations using purified enzymes (TLC assay), COX-2. The note with it: assayed against purified enzymes, read-out: IC50 COX-2. Format: biochemical. On the set-up: made in house; host or cells: Sf9 insect cells.
From the text: as §1, §2

The target of a further data set is T3, COX-1 (Mus musculus, UniProt P22437).
T3 sequence (P22437 1-602): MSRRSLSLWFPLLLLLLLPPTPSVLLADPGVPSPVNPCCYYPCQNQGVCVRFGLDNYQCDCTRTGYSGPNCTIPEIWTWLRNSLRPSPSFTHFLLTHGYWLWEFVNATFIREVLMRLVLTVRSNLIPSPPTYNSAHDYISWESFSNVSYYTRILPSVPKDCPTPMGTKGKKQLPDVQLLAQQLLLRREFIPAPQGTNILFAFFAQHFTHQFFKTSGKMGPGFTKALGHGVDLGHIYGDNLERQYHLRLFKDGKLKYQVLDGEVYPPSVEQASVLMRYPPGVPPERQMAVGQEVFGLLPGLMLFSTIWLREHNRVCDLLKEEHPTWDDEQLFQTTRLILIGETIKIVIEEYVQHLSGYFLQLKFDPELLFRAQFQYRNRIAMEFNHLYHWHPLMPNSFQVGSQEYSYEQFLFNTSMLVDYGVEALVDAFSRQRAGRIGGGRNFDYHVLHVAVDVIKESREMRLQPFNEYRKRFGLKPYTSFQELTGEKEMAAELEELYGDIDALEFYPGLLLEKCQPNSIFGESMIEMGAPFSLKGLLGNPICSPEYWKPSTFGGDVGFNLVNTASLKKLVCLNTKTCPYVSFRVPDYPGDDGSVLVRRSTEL
Briefly: Macrophage assay (RAW264.7), COX-1. The note with it: Table 3; macrophage assay. Format: cell-based, murine. From the text:
Thus, NSAID derivatives that are identified as potentially useful in the methods described herein can be further tested using, for example, the RAW264.7 murine macrophage cell line. These cells are readily available (for example, from the American Type Culture Collection (ATCC), Manassas, Va., United States of America) and are easily cultured in large numbers. They normally express low levels of COX-1 and very low to undetectable levels of COX-2. Upon exposure to bacterial lipopolysaccharide (LPS), however, COX-2 levels increase dramatically over the ensuing 24 hour period, and the cells produce PGD2 and PGE2 from endogenous arachidonic acid stores (generally, ˜1 nmol/10^7 cells total PG formation). After LPS exposure, the addition of exogenous arachidonic acid results in the formation of additional PGD2 and PGE2 as a result of metabolism by the newly synthesized COX-2.
This system provides a number of approaches for testing the inhibitory potency of COX-2-selective ligands (e.g., inhibitors). In general, following LPS activation, cells can be treated for 30 minutes with the desired concentrations of candidate derivative(s) in DMSO. ^14C-arachidonic acid can be added, and the cells can be incubated for 15 minutes at 37° C. Product formation can be assessed following extraction and TLC separation of the culture medium. Alternatively, the effects of candidate derivatives on PG synthesis from endogenous arachidonic acid can be assessed by incubating cells with desired concentrations of candidate derivatives 30 minutes prior to LPS exposure. Following a 24-hour incubation, medium can be collected and extracted, and the amount of PGD2 and/or PGE2 can be assayed by gas chromatography-mass spectrometry, liquid chromatography-mass spectrometry, or ELISA.

In the case of `COc1ccc2c(c1)c(CC(=O)NCCNC(=O)c1cc3ccccc3oc1=O)c(C)n2C(=O)c1ccc(Cl)cc1` [Compound 27cc, N-{2-(Coumarin-3-carboxylamido)ethyl}-2-{1-(4-chlorobenzoyl)-5-methoxy-2-methyl-1H-indol-3-yl}acetamide], the “Fluor. λem” value in the data set “Fluorescence in buffer” (emission) is listed as 405 nm. Also, the “Fluor. λex” value in “Fluorescence in buffer” (excitation) turned out to be 340 nm. Further, the pIC50 is less than 4.60 against ovine COX-1 (Table 3), 6.10 on COX-2 (Table 3) and less than 4.60 against COX-1.

In the case of `COc1ccc2c(c1)c(CC(=O)OCCN1CCN(CCCN3c4ccccc4Sc4ccc(Cl)cc43)CC1)c(C)n2C(=O)c1ccc(Cl)cc1` [Compound 27v], the pIC50 against ovine COX-1 (Table 2) was less than 4.60; on COX-2 (Table 2), 6.41.

For the compound `COc1ccc2c(c1)c(CC(=O)NCCCCNC(=O)c1ccc(C(=O)[O-])c(-c3c4ccc(=[N+](C)C)cc-4oc4cc(N(C)C)ccc34)c1)c(C)n2C(=O)c1ccc(Cl)cc1` [Compound 27xx], the pIC50 against ovine COX-1 (Table 3) and at COX-2 (Table 3) was less than 4.60 each time.

`COc1ccc2c(c1)c(CC(=O)NCCCNC(=O)c1ccc(C(=O)[O-])c(C3=c4cc5c6c(c4Oc4c3cc3c7c4CCCN7CCC3)CCC[N+]=6CCC5)c1)c(C)n2C(=O)c1ccc(Cl)cc1` [Compound 27yy]: the pIC50 at ovine COX-1 (Table 3) and at COX-2 (Table 3) was less than 4.60 in each case.

Consider `COc1ccc2c(c1)c(CC(=O)NCCCCCNC(=O)c1ccc(C(=O)[O-])c(C3=c4cc5c6c(c4Oc4c3cc3c7c4CCCN7CCC3)CCC[N+]=6CCC5)c1)c(C)n2C(=O)c1ccc(Cl)cc1` [Compound 27zz], for which the pIC50 at ovine COX-1 (Table 3) and on COX-2 (Table 3) was less than 4.60 throughout.

`COc1ccc2c(c1)c(CCNC(=O)c1cc3ccccc3oc1=O)c(C)n2Cc1ccc(Br)cc1` [Compound 28b]: the pIC50 at ovine COX-1 (Table 3) and at COX-2 (Table 3) was less than 4.60 in each case.

For `COc1ccc2c(c1)c(CCNC(=O)Cc1ccc(Nc3ccc([N+](=O)[O-])c4nonc34)cc1)c(C)n2Cc1ccc(Br)cc1` [Compound 28c], the pIC50 against ovine COX-1 (Table 3) and on COX-2 (Table 3) was less than 4.60 throughout.

Regarding `COc1ccc2c(c1)c(CCNC(=O)c1ccc(C(=O)[O-])c(C3=c4cc5c6c(c4Oc4c3cc3c7c4CCCN7CCC3)CCC[N+]=6CCC5)c1)c(C)n2Cc1ccc(Br)cc1` [Compound 28e], the negative logarithm of the IC50 (pIC50) against ovine COX-1 (Table 3) and at COX-2 (Table 3) was less than 4.60 in each case.

Turning to `COC(=O)c1cc(-c2ccc(C)cc2)n(-c2ccc(S(C)(=O)=O)cc2)n1` [Compound 29b], the pIC50 on ovine COX-1 (Table 2) was less than 4.60; at COX-2 (Table 2), 5.55.

Take `COSc1ccc(-n2nc(C(=O)OC)cc2-c2ccc(C)cc2)cc1` [Compound 29c]: the negative logarithm of the IC50 (pIC50) on ovine COX-1 (Table 2) and at COX-2 (Table 2) was less than 4.60 throughout.

As to `Cc1ccc(-c2cc(C(=O)O)nn2-c2ccc(S(C)(=O)=O)cc2)cc1` [Compound 29d], the pIC50 on ovine COX-1 (Table 2) and at COX-2 (Table 2) was less than 4.60 throughout.

In the case of `Cc1ccc(-c2cc(CCC(=O)NCCN)nn2-c2ccc(S(C)(=O)=O)cc2)cc1` [Compound 29f], the pIC50 against ovine COX-1 (Table 2) and at COX-2 (Table 2) was less than 4.60 throughout.

Turning to `CC[N+](CC)=c1ccc2nc3c(cc(NC(=O)CCc4cc(-c5ccc(C)cc5)n(-c5ccc(S(C)(=O)=O)cc5)n4)c4ccccc43)oc-2c1` [Compound 29g], the pIC50 against ovine COX-1 (Table 3) and at COX-2 (Table 3) was less than 4.60 throughout.

As to `Cc1ccc(-c2cc(CCC(=O)NCCNC(=O)c3ccc(C(=O)[O-])c(C4=c5cc6c7c(c5Oc5c4cc4c8c5CCCN8CCC4)CCC[N+]=7CCC6)c3)nn2-c2ccc(S(C)(=O)=O)cc2)cc1` [Compound 29h], the pIC50 on ovine COX-1 (Table 3) and at COX-2 (Table 3) was less than 4.60 throughout.

As to `Cc1ccc(-c2cc(C(=O)O)nn2-c2ccc(S(N)(=O)=O)cc2)cc1` [Compound 30d], the pIC50 against ovine COX-1 (Table 2) and at COX-2 (Table 2) was less than 4.60 in each case.

`Cc1ccc(-c2cc(CCC(=O)NCCNC(=O)c3ccc(C(=O)[O-])c(C4=c5cc6c7c(c5Oc5c4cc4c8c5CCCN8CCC4)CCC[N+]=7CCC6)c3)nn2-c2ccc(S(N)(=O)=O)cc2)cc1` [Compound 30e]: the pIC50 against ovine COX-1 (Table 3) and on COX-2 (Table 3) was less than 4.60 in each case.

For `CCN(CC)c1ccc2c(-c3ccc(S(=O)(=O)NCCOCCOCCOCCOCCC(=O)NCCNC(=O)CCc4cc(-c5ccc(C)cc5)n(-c5ccc(S(N)(=O)=O)cc5)n4)cc3S(=O)(=O)[O-])c3ccc(=[N+](CC)CC)cc-3oc2c1` [Compound 30f], the pIC50 on COX-2 (Table 3) was no more than 4.60; on COX-1 it was less than 5.30.

With `COC(=O)c1cc(-c2ccc(C)cc2)n(-c2ccc(S(=O)(=O)N(C)C)cc2)n1` [Compound 31], the pIC50 against ovine COX-1 (Table 2) and on COX-2 (Table 2) was less than 4.60 throughout.

For the compound `Cc1ccc(C(=O)N2CCN(C(=O)c3ccc(C4=c5cc6c7c(c5Oc5c4cc4c8c5CCCN8CCC4)CCC[N+]=7CCC6)c(C(=O)[O-])c3)CC2)cc1` [Compound 32], the pIC50 against ovine COX-1 (Table 3) and on COX-2 (Table 3) was less than 4.60 throughout.

Source of the values: patent US7736624B2, “Methods and compositions for diagnostic and therapeutic targeting of COX-2” (priority 2006, dated 2010).
